Experimental data published in US20080069899A1, “Pharmaceutical Compositions Comprising Beta-Carboline Derivatives and Use Thereof for the Treatment of Cancer” (priority 2004, published 2008).
“And” between values parts separate entries of the source, which are not always exact repeats. Equal values may be shown once. Where a name gives a salt, the structure may show the parent alone. Read-outs that look alike come from different tables or passages of the source.

Key:
[1] = system: HBMEC (immortalized human bone marrow endothelial cell lines); assay: in vitro cytotoxicity test (neutral red, 96-well microplate); type: cell-based; details: 96 h, incubation 4 days
Experimental: (§1) The cytotoxic effects of the different alkaloid extracts of P. harmala were studied on several cell lines: • human leukemia cell lines: K562 and Jurkat (leukemia), U937 (myeloma), • human solid tumor cell lines: KB (epithelioma of the nasopharynx) and HT29 (colon), • immortalized human bone marrow endothelial cell lines: HBMEC.
(§2) The cells are cultured in an oven under a 5% CO2 atmosphere and at 37° C., in RPMI 1640 medium for K562, Jurkat, U937 and HT29 and DMEM for KB, supplemented with 10% foetal calf serum, 0.01% penicillin-streptomycin and L-glutamine 2 mM and in EGM2 medium for the HBMEC cells.
(§3) The cytotoxicity test is carried out in a 96-well microplate in the presence of the extract to be tested at varying concentrations of 40, 20, 10, 5, 1, 0.5 μg/ml and in the absence of product, after incubation for 4 days at 37° C. On the 3rd day, a solution of neutral red is added which is absorbed by living cells. The optical density (OD) of dye released by lyzed cells is measured at 540 nm by an Elisa plate reader. The toxicity (% inhibition of growth) is inversely proportional to the optical density.
(§4) The percentage of inhibition is defined as being the difference between the OD without product and the OD in the presence of product compared to the OD without product.
(§5) The concentration inhibiting 50% of cell growth is obtained from the curve representing the percentage of inhibition as a function of the logarithm of the concentration.

Jurkat (leukemia) = assay: as above; type: cell-based; details: Homo sapiens, 96 h, incubation 4 days
Experimental: as §1, §2, §3, §4, §5

K562 (leukemia) = assay: as above; type: cell-based; details: Homo sapiens, incubation 4 days
Experimental: as §1, §2, §3, §4, §5

[2] = system: KB (epithelioma of the nasopharynx); assay: as above; type: cell-based; details: Homo sapiens, 96 h, incubation 4 days
Experimental: as §1, §2, §3, §4, §5

U937 (myeloma) = assay: as above; type: cell-based; details: Homo sapiens, U-937, 96 h, incubation 4 days
Experimental: as §1, §2, §3, §4, §5

[3] = system: HT29 human colon tumor cells; assay: in vivo antineoplastic activity, NOD-SCID mice xenografted with HT29 human tumour cells
Experimental: (§6) The animal model chosen is that of severe combined immunodeficient (NOD-SCID) mice having received a xenograft of human tumor cells.
(§7) Male and female NOD-SCID mice, more than 3 months old, were raised in an environment of strict sterility, in an insulator ventilated with filtered air and sterilized, at 22° C. and 40% humidity, with a day-12 h/night-12 h cycle. The cages, feeding bottles and the water were sterilized in an autoclave at 120° C. for 30 minutes and the food as well as the bedding were treated with γ-irradiation. All handling took place in aseptic conditions under a laminar flow hood.
The mice were subjected to general anaesthesia by i.p. injection of 0.3 to 0.4 ml of hypnomidate at 2 mg/ml. 1×10^7 HT29 human colon tumor cells in suspension in 200 μl of PBS were then injected sub-cutaneously, into the backs of the mice. […]
50 mg of 5-fluorouracil (Sigma) were dissolved in 8 ml of water and the solution obtained was sterilized by filtration on a membrane with 0.22 μm porosity. […]

[4] = Experimental: as §6, §7
150 mg of cyclophosphamide (Sigma) were dissolved in 8 ml of water and the solution obtained was sterilized by filtration on a membrane with 0.22 μm porosity.
50 mg of 5-fluorouracil (Sigma) were dissolved in 8 ml of water and the solution obtained was sterilized by filtration on a membrane with 0.22 μm porosity.
100 mg of dihydrated harmalacidine hydrochloride were dissolved in 8 ml of water and the solution obtained was sterilized by filtration on a membrane with 0.22 μm porosity. The mice received either 25, 50, or 100 mg/kg/day of harmalacidine alone, or a mixture of 25 or 50 mg/kg/day of harmalacidine+50 mg/kg/day of cyclophosphamide.

[5] = system: malignant and endothelial cells tested; assay: summary of in vitro cytotoxicity over all lines tested; type: cell-based, human; details: range over the cell lines, read-out: IC50 vis-à-vis malignant and endothelial cells tested
Experimental: as §1, §2, §3, §4, §5
To summarize, the IC50 vis-à-vis malignant and endothelial cells tested is the following: […]

O=C1NCCc2c1[nH]c1cc(O)ccc21 [Demethyl-harmalacidine (D), demethyl harmalacidine]
IC50 [1]: 17 µg/mL and 84.1 µM | IC50 (Jurkat (leukemia)): 8.5 µg/mL and 42 µM | IC50 (K562 (leukemia); K562, 96 h): 20 µg/mL and 99 µM | IC50 [2]: 10 µg/mL and 49.5 µM

CC[C@@]1(O)C(=O)OCc2c1cc1n(c2=O)Cc2cc3ccccc3nc2-1 [Camptothecin, reference compound]
IC50 [1]: 0.025 µg/mL and 70 nM | IC50 (Jurkat (leukemia)): 0.003 µg/mL and 90 nM | IC50 (K562 (leukemia); 96 h): 0.014 µg/mL and 40 nM | IC50 [2]: 0.035 µg/mL and 100 nM | IC50 (U937 (myeloma)): 0.023 µg/mL and 70 nM

OC1CCN2Cc3ccccc3N=C12 (centres unmarked) [Peganine (B), Peganine]
IC50 (Jurkat (leukemia)): 75 µg/mL and 399 µM | IC50 (K562 (leukemia); K562, 96 h): 35 µg/mL and 186 µM | IC50 [2]: > 50 µg/mL and > 266 µM

CC[C@]1(O)C[C@@H]2CN(CCc3c([nH]c4ccccc34)[C@@](C(=O)OC)(c3cc4c(cc3OC)N(C)[C@H]3[C@@](O)(C(=O)OC)[C@H](OC(C)=O)[C@]5(CC)C=CCN6CC[C@]43[C@@H]65)C2)C1 [vinblastine, reference compound]
antineoplastic activity ([3]; vinblastine between 0.125 and 0.5 mg/kg/day, sub-cutaneous administration, until the 40th day): dose-dependent | tolerance of the dose ([4]; mouse, in vivo): not tolerated

O=c1[nH]cc(F)c(=O)[nH]1 [5-fluorouracil]
Average volume of the tumours of the treated mice compared to the average volume of the tumours of the non-treated mice (T/C) (%) ([3]; 5-fluorouracil 3 mg/kg/day alone per os, Day 15): 43% | Average volume of the tumours of the treated mice compared to the average volume of the tumours of the non-treated mice (T/C) (%) ([3]; 5-fluorouracil 3 mg/kg/day alone per os, Day 30): 56% | Average volume of the tumours of the treated mice compared to the average volume of the tumours of the non-treated mice (T/C) (%) ([3]; 5-fluorouracil 3 mg/kg/day alone per os, Day 40): 66% | Average volume of the tumours of the treated mice compared to the average volume of the tumours of the non-treated mice (T/C) (%) ([3]; 5-fluorouracil 3 mg/kg/day alone per os, Day 50): 61% | Average volume of the tumours of the treated mice compared to the average volume of the tumours of the non-treated mice (T/C) (%) ([3]; 5-fluorouracil 3 mg/kg/day alone per os, Day 60): 86% | Average volume of the tumours of the treated mice compared to the average volume of the tumours of the non-treated mice (T/C) (%) ([3]; 5-fluorouracil 6 mg/kg/day alone per os, Day 15): 37% | Average volume of the tumours of the treated mice compared to the average volume of the tumours of the non-treated mice (T/C) (%) ([3]; 5-fluorouracil 6 mg/kg/day alone per os, Day 30): 53% | Average volume of the tumours of the treated mice compared to the average volume of the tumours of the non-treated mice (T/C) (%) ([3]; 5-fluorouracil 6 mg/kg/day alone per os, Day 40): 60% | Average volume of the tumours of the treated mice compared to the average volume of the tumours of the non-treated mice (T/C) (%) ([3]; 5-fluorouracil 6 mg/kg/day alone per os, Day 50): 64% | Average volume of the tumours of the treated mice compared to the average volume of the tumours of the non-treated mice (T/C) (%) ([3]; 5-fluorouracil 6 mg/kg/day alone per os, Day 60): 70% | Average volume of the tumours of the treated mice compared to the average volume of the tumours of the non-treated mice (T/C) (%) ([3]; 5-fluorouracil 9 mg/kg/day alone per os, Day 15): 41% | Average volume of the tumours of the treated mice compared to the average volume of the tumours of the non-treated mice (T/C) (%) ([3]; 5-fluorouracil 9 mg/kg/day alone per os, Day 30): 41% | Average volume of the tumours of the treated mice compared to the average volume of the tumours of the non-treated mice (T/C) (%) ([3]; 5-fluorouracil 9 mg/kg/day alone per os, Day 40): 59% | Average volume of the tumours of the treated mice compared to the average volume of the tumours of the non-treated mice (T/C) (%) ([3]; 5-fluorouracil 9 mg/kg/day alone per os, Day 50): 52% | Average volume of the tumours of the treated mice compared to the average volume of the tumours of the non-treated mice (T/C) (%) ([3]; 5-fluorouracil 9 mg/kg/day alone per os, Day 60): 59% | Average volume of the tumours of the treated mice compared to the average volume of the tumours of the non-treated mice (T/C) (%) ([3]; 5-fluorouracil 12 mg/kg/day alone per os, Day 15): 73% | Average volume of the tumours of the treated mice compared to the average volume of the tumours of the non-treated mice (T/C) (%) ([3]; 5-fluorouracil 12 mg/kg/day alone per os, Day 30): 66% | Average volume of the tumours of the treated mice compared to the average volume of the tumours of the non-treated mice (T/C) (%) ([3]; 5-fluorouracil 12 mg/kg/day alone per os, Day 40): 54% | Average volume of the tumours of the treated mice compared to the average volume of the tumours of the non-treated mice (T/C) (%) ([3]; 5-fluorouracil 12 mg/kg/day alone per os, Day 50): 47% | Average volume of the tumours of the treated mice compared to the average volume of the tumours of the non-treated mice (T/C) (%) ([3]; 5-fluorouracil 12 mg/kg/day alone per os, Day 60): 59% | T/C ([3]; 5-fluorouracil 24 mg/kg/d, alternating 6 days of treatment and 6 days of rest, until the 20th day of the treatment): 17% | Average volume of the tumours of the treated mice compared to the average volume of the tumours of the non-treated mice (T/C) (%) ([3]; 5-fluorouracil 24 mg/kg/day alone, alternating 6 days of treatment and 6 days of rest, Day 15): 17% | Average volume of the tumours of the treated mice compared to the average volume of the tumours of the non-treated mice (T/C) (%) ([3]; 5-fluorouracil 24 mg/kg/day alone, alternating 6 days of treatment and 6 days of rest, Day 30): 54% | Average volume of the tumours of the treated mice compared to the average volume of the tumours of the non-treated mice (T/C) (%) ([3]; 5-fluorouracil 24 mg/kg/day alone, alternating 6 days of treatment and 6 days of rest, Day 40): 54% | day of administration at which the dose becomes lethal ([4]; both, NOD-SCID, mouse, in vivo): 35 to 45 days

dihydrated harmalacidine hydrochloride
IC50 [5]: 34.4 to 134 µM

COc1ccc2c(c1)[nH]c1c(C)nccc12 [Harmine•HCl•2H2O, dihydrated harmine hydrochloride]
IC50 ([5]; hydrochloride): 10.5 to 35 µM

O=P1(N(CCCl)CCCl)NCCCO1 (centres unmarked) [cyclophosphamide]
Average volume of the tumours of the treated mice compared to the average volume of the tumours of the non-treated mice (T/C) (%) ([3]; cyclophosphamide 50 mg/kg/day alone, Day 15): 63% | Average volume of the tumours of the treated mice compared to the average volume of the tumours of the non-treated mice (T/C) (%) ([3]; cyclophosphamide 50 mg/kg/day alone, Day 30): 42% | Average volume of the tumours of the treated mice compared to the average volume of the tumours of the non-treated mice (T/C) (%) ([3]; cyclophosphamide 50 mg/kg/day alone, Day 40): 37% | Average volume of the tumours of the treated mice compared to the average volume of the tumours of the non-treated mice (T/C) (%) ([3]; cyclophosphamide 50 mg/kg/day alone, Day 50): 36% | Average volume of the tumours of the treated mice compared to the average volume of the tumours of the non-treated mice (T/C) (%) ([3]; cyclophosphamide 50 mg/kg/day alone, Day 60): 32% | Average volume of the tumours of the treated mice compared to the average volume of the tumours of the non-treated mice (T/C) (%) ([3]; cyclophosphamide 100 mg/kg/day alone, Day 15): 47% | Average volume of the tumours of the treated mice compared to the average volume of the tumours of the non-treated mice (T/C) (%) ([3]; cyclophosphamide 100 mg/kg/day alone, Day 30): 25% | Average volume of the tumours of the treated mice compared to the average volume of the tumours of the non-treated mice (T/C) (%) ([3]; cyclophosphamide 100 mg/kg/day alone, Day 40): 18% | Average volume of the tumours of the treated mice compared to the average volume of the tumours of the non-treated mice (T/C) (%) ([3]; cyclophosphamide 100 mg/kg/day alone, Day 50): 14% | Average volume of the tumours of the treated mice compared to the average volume of the tumours of the non-treated mice (T/C) (%) ([3]; cyclophosphamide 100 mg/kg/day alone, Day 60): 15% | Average volume of the tumours of the treated mice compared to the average volume of the tumours of the non-treated mice (T/C) (%) ([3]; cyclophosphamide 150 mg/kg/day alone, Day 15): 4% | tolerance of the dose ([4]; cyclophosphamide 150 mg/kg/day alone, all died around the 15th day of treatment): did not tolerate
